Experimental data: patent publication USRE48461E1, “Modulation of androgen receptor expression” (Ionis Pharmaceuticals, Inc., priority 2012, dated 2021)

Key:
Format in all cases: cell-based, human
[1] = tested on: PSA mRNA; assay: PSA expression in VCaP cells; conditions: 48 hrs
Protocol: Cells were plated at 10,000 cells per well. […] After an incubation period of 48 hrs, RNA levels of full length AR, the V7 variant, PSA and TMPRSS2 were measured.
After an incubation period of 48 hrs, RNA levels of full length AR, the V7 variant, PSA and TMPRSS2 were measured. The data is presented in Tables 108 expressed as percent expression of gene levels compared to the untreated control.
Cells were plated at 15,000 cells per well and cultured in CSS media for 16 hours. […] After 4 hrs, 1 nM DHT was added. […] After an incubation period of 48 hrs, RNA levels of AR, PSA and TMPRSS2 were measured.

[2] = tested on: 22RV1 cells; assay: 22RV1 cell proliferation (Example 32); conditions: 5 days
Protocol: (§1) After a treatment period of 5 days in complete medium, the proliferative capacity of the cancer cells was measured with using CellTiter 96® AQueous One or CellTiter-Glo® Solution Cell Proliferation kit (Promega), following the manufacturer's instructions. […] Treatment with ISIS oligonucleotides in CSS+DHT medium reduced the proliferative capacity to a greater extent than treatment with MVD-3100. The proliferative capacity of cells cultured in CSS medium without DHT is 12% of untreated control levels.

[3] = tested on: TMPRSS2 mRNA; assay: TMPRSS2 expression in C4-2 cells; conditions: 48 hrs; for Percent inhibition of TMPRSS2 expression: C4-2 cells, CSS + DHT medium
Protocol: (§2) Cells were plated at 1,000 cells per well. […] After an incubation period of 48 hrs, RNA levels of AR, PSA and TMPRSS2 were measured.
(§3) Cells were plated at 2,000 cells per well and cultured in CSS media with 1 nM DHT. […] After an incubation period of 48 hrs, RNA levels of AR, PSA and TMPRSS2 were measured.

[4] = tested on: PSA mRNA; assay: PSA expression in C4-2B cells (Example 30); conditions: 48 hrs
Protocol: Cells were plated at 1,000 cells per well. […] ISIS 549148 was included as a negative control. […] After an incubation period of 48 hrs, RNA levels of AR, PSA and TMPRSS2 were measured.
Cells were plated at 2,000 cells per well and cultured in CSS media with 1 nM DHT. […] ISIS 549148 was included as a negative control. […] After an incubation period of 48 hrs, RNA levels of AR, PSA and TMPRSS2 were measured. In the absence of DHT, AR expression in C4-2 cells was 188%, PSA expression was 43% and TMPRSS2 expression was 27% compared to the untreated control.

[5] = tested on: C4-2B cells; assay: C4-2B cell proliferation (complete or CSS+DHT medium; Example 30); conditions: 5 days; for Proliferation (% untreated control): C4-2B cells
Protocol: After a treatment period of 5 days in complete medium or CSS+1 nM DHT medium, the proliferative capacity of the cancer cells was measured with using CellTiter 96® AQueous One or CellTiter-Glo® Solution Cell Proliferation kit (Promega), following the manufacturer's instructions.

[6] = tested on: VCaP cells; assay: VCaP cell proliferation; conditions: 5 days; for Proliferation (% untreated control): VCaP cells
Protocol: as §1, with “complete medium or CSS+1 nM DHT” for “complete”

[7] = tested on: AR mRNA; assay: AR RNA expression in C4-2 cells (complete, CSS+DHT medium); conditions: 48 hrs; for Percent expression of AR / AR expression: C4-2 cells; for Percent expression of AR: CSS + DHT medium
Protocol: as §2, §3

[8] = complete medium or CSS+1 nM DHT

## CNC(=O)c1ccc(N2C(=S)N(c3ccc(C#N)c(C(F)(F)F)c3)C(=O)C2(C)C)cc1F [MDV3100, 4-(3-(4-cyano-3-(trifluoromethyl)phenyl)-5,5-dimethyl-4-oxo-2-thioxoimidazolidin-1-yl)-2-fluoro-N-methylbenzamide, reference compound]
[1]; CSS + DHT medium, 0.04 μM
  Percent of gene expression, PSA: 90%
[1]; CSS + DHT medium, 0.2 μM
  Percent of gene expression, PSA: 72%
[1]; CSS + DHT medium, 1.0 μM
  Percent of gene expression, PSA: 57%
[1]; CSS + DHT medium, 5.0 μM
  Percent of gene expression, PSA: 30%
[1]; complete medium, 0.04 μM
  Percent of gene expression, PSA: 105%
[1]; complete medium, 0.2 μM
  Percent of gene expression, PSA: 76%
[1]; complete medium, 1.0 μM
  Percent of gene expression, PSA: 75%
[1]; complete medium, 5.0 μM
  Percent of gene expression, PSA: 61%
[2]; 0.04 μM
  Proliferation (% untreated control) in 22RV1 cells treated with MDV-3100: 87%
[2]; 0.2 μM
  Proliferation (% untreated control) in 22RV1 cells treated with MDV-3100: 83%
[2]; 1.0 μM
  Proliferation (% untreated control) in 22RV1 cells treated with MDV-3100: 81%
[2]; 5.0 μM
  Proliferation (% untreated control) in 22RV1 cells treated with MDV-3100: 74%
[2]
  proliferation of 22RV1 cells: reduced proliferation of the cells in a dose dependent compared to the control
[3]; 0.04 μM
  Percent inhibition of TMPRSS2 expression: 9%
  Percent inhibition of TMPRSS2 expression in C4-2 cells cultured in complete medium: 10%
[3]; 0.2 μM
  Percent inhibition of TMPRSS2 expression: 0%
  Percent inhibition of TMPRSS2 expression in C4-2 cells cultured in complete medium: 20%
[3]; 1 μM
  Percent inhibition of TMPRSS2 expression: 44%
  Percent inhibition of TMPRSS2 expression in C4-2 cells cultured in complete medium: 44%
[3]; 5.0 μM
  Percent inhibition of TMPRSS2 expression: 78%
  Percent inhibition of TMPRSS2 expression in C4-2 cells cultured in complete medium: 67%
[4]; CSS + DHT medium, 0.04 μM
  Percent inhibition of PSA expression: 0%
[4]; CSS + DHT medium, 0.2 μM
  Percent inhibition of PSA expression: 0%
[4]; CSS + DHT medium, 1 μM
  Percent inhibition of PSA expression: 37%
[4]; CSS + DHT medium, 5.0 μM
  Percent inhibition of PSA expression: 45%
[4]; complete medium, 0.04 μM
  Percent inhibition of PSA expression: 8%
[4]; complete medium, 0.2 μM
  Percent inhibition of PSA expression: 27%
[4]; complete medium, 1 μM
  Percent inhibition of PSA expression: 73%
[4]; complete medium, 5.0 μM
  Percent inhibition of PSA expression: 88%
[5]; CSS + DHT medium, 0.04 μM
  Proliferation (% untreated control): 125 % untreated control
[5]; CSS + DHT medium, 0.2 μM
  Proliferation (% untreated control): 100 % untreated control
[5]; CSS + DHT medium, 1 μM
  Proliferation (% untreated control): 83 % untreated control
[5]; CSS + DHT medium, 5.0 μM
  Proliferation (% untreated control): 17 % untreated control
[5]; complete medium, 0.04 μM
  Proliferation (% untreated control): 131 % untreated control
[5]; complete medium, 0.2 μM
  Proliferation (% untreated control): 105 % untreated control
[5]; complete medium, 1 μM
  Proliferation (% untreated control): 72 % untreated control
[5]; complete medium, 5.0 μM
  Proliferation (% untreated control): 60 % untreated control
[5]; [8]
  proliferation of C4-2B cells: reduced proliferation of the cells in a dose dependent compared to the control
[6]; CSS + DHT medium, 0.04 μM
  Proliferation (% untreated control): 117 % untreated control
[6]; CSS + DHT medium, 0.2 μM
  Proliferation (% untreated control): 119 % untreated control
[6]; CSS + DHT medium, 1.0 μM
  Proliferation (% untreated control): 71 % untreated control
[6]; CSS + DHT medium, 5.0 μM
  Proliferation (% untreated control): 65 % untreated control
[6]; Complete medium, 0.04 μM
  Proliferation (% untreated control): 49 % untreated control
[6]; Complete medium, 0.2 μM
  Proliferation (% untreated control): 44 % untreated control
[6]; Complete medium, 1.0 μM
  Proliferation (% untreated control): 27 % untreated control
[6]; Complete medium, 5.0 μM
  Proliferation (% untreated control): 17 % untreated control
[6]; [8]
  proliferation of VCaP cells: reduced proliferation of the cells in a dose dependent compared to the control
[7]; 0.04 μM
  Percent expression of AR: 101%
[7]; 0.2 μM
  Percent expression of AR: 109%
[7]; CSS+DHT medium
  AR expression: increased AR expression in the cells
[7]; complete medium
  AR expression: increased AR expression in the cells
[7]; complete medium, 0.04 μM
  Percent expression of AR in C4-2 cells cultured in complete medium: 95%
[7]; complete medium, 0.2 μM
  Percent expression of AR in C4-2 cells cultured in complete medium: 99%
[7]; complete medium, 1 μM
  Percent expression of AR in C4-2 cells cultured in complete medium: 132%
[7]; complete medium, 5.0 μM
  Percent expression of AR in C4-2 cells cultured in complete medium: 137%
